A word on the IC50: it is the concentration that gives 50% inhibition.

For this test, the target named is T1, KRAS^G12C::SOS1 (Homo sapiens, UniProt Q07889).
T1 sequence (Q07889 1-1333): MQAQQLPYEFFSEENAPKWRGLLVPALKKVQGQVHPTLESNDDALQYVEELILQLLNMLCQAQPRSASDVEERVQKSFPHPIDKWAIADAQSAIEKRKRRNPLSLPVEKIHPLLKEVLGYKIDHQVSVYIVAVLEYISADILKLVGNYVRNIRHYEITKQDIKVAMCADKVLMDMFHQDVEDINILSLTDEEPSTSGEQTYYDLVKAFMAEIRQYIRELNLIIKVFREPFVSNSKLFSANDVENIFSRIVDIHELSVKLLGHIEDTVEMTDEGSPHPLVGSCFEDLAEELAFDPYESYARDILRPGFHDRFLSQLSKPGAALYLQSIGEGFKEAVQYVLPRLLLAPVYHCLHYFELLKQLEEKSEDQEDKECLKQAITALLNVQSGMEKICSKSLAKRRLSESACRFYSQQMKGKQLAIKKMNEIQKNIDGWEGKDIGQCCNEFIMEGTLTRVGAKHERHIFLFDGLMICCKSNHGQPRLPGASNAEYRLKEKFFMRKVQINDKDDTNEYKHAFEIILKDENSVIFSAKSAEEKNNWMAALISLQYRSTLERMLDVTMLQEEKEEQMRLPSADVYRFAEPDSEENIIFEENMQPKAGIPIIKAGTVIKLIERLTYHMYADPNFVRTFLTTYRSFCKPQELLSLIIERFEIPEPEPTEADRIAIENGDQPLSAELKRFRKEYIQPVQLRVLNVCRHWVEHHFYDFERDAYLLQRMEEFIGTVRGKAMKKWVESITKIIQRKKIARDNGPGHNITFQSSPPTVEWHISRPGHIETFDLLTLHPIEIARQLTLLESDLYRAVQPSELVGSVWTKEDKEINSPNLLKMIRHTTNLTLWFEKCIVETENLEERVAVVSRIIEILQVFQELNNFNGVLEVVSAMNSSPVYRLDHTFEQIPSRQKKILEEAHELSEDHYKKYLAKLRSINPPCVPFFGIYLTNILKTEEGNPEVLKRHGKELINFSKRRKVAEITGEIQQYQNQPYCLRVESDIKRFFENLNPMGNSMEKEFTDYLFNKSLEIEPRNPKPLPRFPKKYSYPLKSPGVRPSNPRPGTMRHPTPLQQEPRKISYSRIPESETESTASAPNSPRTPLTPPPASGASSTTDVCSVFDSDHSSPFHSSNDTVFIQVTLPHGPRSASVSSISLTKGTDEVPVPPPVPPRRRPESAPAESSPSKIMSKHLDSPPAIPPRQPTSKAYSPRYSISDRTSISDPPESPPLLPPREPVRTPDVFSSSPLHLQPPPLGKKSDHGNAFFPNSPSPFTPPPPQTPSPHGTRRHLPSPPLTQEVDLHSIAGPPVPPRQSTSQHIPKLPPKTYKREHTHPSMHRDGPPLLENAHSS
The test is described as follows: KRAS G12C::SOS1 protein-protein interaction (PPI) inhibition assay (HTRF binding kit). (TR-FRET usually uses a lanthanide donor and a delayed reading to cut background.)
`C[C@@H](NC(=O)c1nn(-c2ccccc2F)c(=O)c2ccsc12)c1cc(N)cc(C(F)(F)F)c1` [Example 309, N-[(1R)-1-[3-amino-5-(trifluoromethyl)phenyl]ethyl]-5-(2-fluorophenyl)-4-oxo-thieno[2,3-d]pyridazine-7-carboxamide]: the concentration for half-maximal inhibition (IC50) is less than 1000 nM.

`C[C@@H](NC(=O)c1nn(-c2ccccc2F)c(=O)c2ccsc12)c1cccc(C(F)(F)CO)c1F` [Example 310, N-[(1R)-1-[3-(1,1-difluoro-2-hydroxy-ethyl)-2-fluoro-phenyl]ethyl]-5-(2-fluorophenyl)-4-oxo-thieno[2,3-d]pyridazine-7-carboxamide] had an IC50 of less than 1000 nM.

Compound `C[C@@H](NC(=O)c1nn(-c2cccnc2F)c(=O)c2ccsc12)c1cc(N)cc(C(F)(F)F)c1` [Example 311, N-[(1R)-1-[3-amino-5-(trifluoromethyl)phenyl]ethyl]-5-(2-fluoro-3-pyridyl)-4-oxo-thieno[2,3-d]pyridazine-7-carboxamide] came in with an IC50 of less than 1000 nM.

For `C[C@@H](NC(=O)c1nn(-c2ccccc2F)c(=O)c2sccc12)c1cc(N)cc(C(F)(F)F)c1` [Example 312, N-[(1R)-1-[3-amino-5-(trifluoromethyl)phenyl]ethyl]-6-(2-fluorophenyl)-7-oxo-thieno[2,3-d]pyridazine-4-carboxamide], the IC50 is less than 1000 nM.

`CC(=O)Nc1cc(=O)n(-c2ccccc2)nc1C(=O)N[C@H](C)c1cc(N)cc(C(F)(F)F)c1` [Example 313, 4-acetamido-N-[(1R)-1-[3-amino-5-(trifluoromethyl)phenyl]ethyl]-6-oxo-1-phenyl-pyridazine-3-carboxamide] showed a half-inhibitory concentration (IC50) of less than 1000 nM.

Compound `C[C@@H](NC(=O)c1nn(-c2ccccc2F)c(=O)c2cc[nH]c12)c1cccc(C(F)(F)CO)c1F` [Example 314, N-[(1R)-1-[3-(1,1-difluoro-2-hydroxy-ethyl)-2-fluoro-phenyl]ethyl]-5-(2-fluorophenyl)-4-oxo-1H-pyrrolo[2,3-d]pyridazine-7-carboxamide] returned an IC50 of less than 1000 nM.

In the case of `C[C@@H](NC(=O)c1nn(-c2cnn(C)c2)c(=O)c2ccsc12)c1cc(N)cc(C(F)(F)F)c1` [Example 316, N-[(1R)-1-[3-amino-5-(trifluoromethyl)phenyl]ethyl]-5-(1-methylpyrazol-4-yl)-4-oxo-thieno[2,3-d]pyridazine-7-carboxamide], the IC50 was less than 1000 nM.

`C[C@@H](NC(=O)c1nn(-c2ccccc2)c(=O)c2ccsc12)c1cc(N)cc(C(F)(F)F)c1` [Example 317, N-[(1R)-1-[3-amino-5-(trifluoromethyl)phenyl]ethyl]-4-oxo-5-phenyl-thieno[2,3-d]pyridazine-7-carboxamide]: the IC50 is less than 1000 nM.

The compound `C[C@@H](NC(=O)c1ccc(=O)n(-c2cccc(-c3ncnn3C)c2)c1)c1cc(N)cc(C(F)(F)F)c1` [Example 318, N-[(1R)-1-[3-amino-5-(trifluoromethyl)phenyl]ethyl]-1-[3-(2-methyl-1,2,4-triazol-3-yl)phenyl]-6-oxo-pyridine-3-carboxamide] yielded a 50% inhibitory concentration (IC50) of less than 1000 nM.

In turn, `Cc1nnc(-c2cccc(-n3nc(C(=O)N[C@H](C)c4cc(N)cc(C(F)(F)F)c4)ccc3=O)c2)o1` [Example 319, N-[(1R)-1-[3-amino-5-(trifluoromethyl)phenyl]ethyl]-1-[3-(5-methyl-1,3,4-oxadiazol-2-yl)phenyl]-6-oxo-pyridazine-3-carboxamide] gave an IC50 of less than 1000 nM.

Compound `C[C@@H](NC(=O)c1ccc(=O)n(-c2cccc(-c3cncn3C)c2)n1)c1cc(N)cc(C(F)(F)F)c1` [Example 320, N-[(1R)-1-[3-amino-5-(trifluoromethyl)phenyl]ethyl]-1-[3-(3-methylimidazol-4-yl)phenyl]-6-oxo-pyridazine-3-carboxamide] came in with an IC50 of less than 1000 nM.

`C[C@@H](NC(=O)c1ccc(=O)n(-c2cccc(-c3ccnn3C)c2)c1)c1cc(N)cc(C(F)(F)F)c1` [Example 321, N-[(1R)-1-[3-amino-5-(trifluoromethyl)phenyl]ethyl]-1-[3-(2-methylpyrazol-3-yl)phenyl]-6-oxo-pyridine-3-carboxamide] came in with an IC50 of less than 1000 nM.

`C[C@@H](NC(=O)c1ccc(=O)n(-c2cccc(-c3ncn(C)n3)c2)n1)c1cc(N)cc(C(F)(F)F)c1` [Example 323, N-[(1R)-1-[3-amino-5-(trifluoromethyl)phenyl]ethyl]-1-[3-(1-methyl-1,2,4-triazol-3-yl)phenyl]-6-oxo-pyridazine-3-carboxamide] returned an IC50 of less than 1000 nM.

In turn, `Cc1ncccc1-c1cccc(-n2nc(C(=O)N[C@H](C)c3cc(N)cc(C(F)(F)F)c3)ccc2=O)c1` [Example 324, N-[(1R)-1-[3-amino-5-(trifluoromethyl)phenyl]ethyl]-1-[3-(2-methyl-3-pyridyl)phenyl]-6-oxo-pyridazine-3-carboxamide] gave a half-maximal inhibitory concentration (IC50) of less than 1000 nM.

Compound `C[C@@H](NC(=O)c1ccc(=O)n(-c2cccc(-c3ccccn3)c2)n1)c1cc(N)cc(C(F)(F)F)c1` [Example 325, N-[(1R)-1-[3-amino-5-(trifluoromethyl)phenyl]ethyl]-6-oxo-1-[3-(2-pyridyl)phenyl]pyridazine-3-carboxamide] yielded a half-inhibitory concentration (IC50) of less than 1000 nM.

As for `C[C@@H](NC(=O)c1ccc(=O)n(-c2cccc(-c3cnnn3C)c2)c1)c1cc(N)cc(C(F)(F)F)c1` [Example 326, N-[(1R)-1-[3-amino-5-(trifluoromethyl)phenyl]ethyl]-1-[3-(3-methyltriazol-4-yl)phenyl]-6-oxo-pyridine-3-carboxamide], the concentration for half-maximal inhibition (IC50) was less than 1000 nM.

`CCn1nncc1-c1cccc(-n2nc(C(=O)N[C@H](C)c3cc(N)cc(C(F)(F)F)c3)ccc2=O)c1` [Example 327, N-[(1R)-1-[3-amino-5-(trifluoromethyl)phenyl]ethyl]-1-[3-(3-ethyltriazol-4-yl)phenyl]-6-oxo-pyridazine-3-carboxamide] showed an IC50 of less than 1000 nM.

As to `C[C@@H](NC(=O)c1ccc(=O)n(-c2cccc(-c3ncnn3C)c2)n1)c1cc(N)cc(C(F)(F)F)c1` [Example 328, N-[(1R)-1-[3-amino-5-(trifluoromethyl)phenyl]ethyl]-1-[3-(2-methyl-1,2,4-triazol-3-yl)phenyl]-6-oxo-pyridazine-3-carboxamide], the IC50 is less than 1000 nM.

`C[C@@H](NC(=O)c1ccc(=O)n(-c2cccc(-c3ccn[nH]3)c2)n1)c1cc(N)cc(C(F)(F)F)c1` [Example 329, N-[(1R)-1-[3-amino-5-(trifluoromethyl)phenyl]ethyl]-6-oxo-1-[3-(1H-pyrazol-5-yl)phenyl]pyridazine-3-carboxamide] had a 50% inhibitory concentration (IC50) of less than 1000 nM.

Take `C[C@@H](NC(=O)c1ccc(=O)n(-c2cccc(-c3ccn(C)n3)c2)n1)c1cccc(C(F)(F)CO)c1F` [Example 330, N-[(1R)-1-[3-(1,1-difluoro-2-hydroxy-ethyl)-2-fluoro-phenyl]ethyl]-1-[3-(1-methylpyrazol-3-yl)phenyl]-6-oxo-pyridazine-3-carboxamide]: the IC50 was less than 1000 nM.

On to `C[C@@H](NC(=O)c1ccc(=O)n(-c2cccc(-c3ccn(C)n3)c2)n1)c1cc(N)cc(C(F)(F)F)c1` [Example 331, N-[(1R)-1-[3-amino-5-(trifluoromethyl)phenyl]ethyl]-1-[3-(1-methylpyrazol-3-yl)phenyl]-6-oxo-pyridazine-3-carboxamide], for which the IC50 is less than 1000 nM.
